Data reported in PMC9821130, “Testing Antimicrobial Properties of Selected Short Amyloids” (International Journal of Molecular Sciences, 2023).
Converted amounts (≈) assume the structure as drawn. Read-outs that look alike come from different tables or passages of the source. Where a SMILES comes first, the peptide text is derived from it. Where no end group is shown, it is not given here.

Assays:
[1] = test system: Enterococcus faecium 2VRE; assay type: cell-based
Description: (§1) All bacterial strains were stored at −80 °C. The strains were revived using overnight cultures prepared in Tryptic Soy Broth (TSB, OXOID, Basingstoke, UK) and incubated under shaking conditions (MaxQTM6000 incubator shaker, Thermo Scientific, Waltham, MA, USA) at 125 rpm and 37 °C. Next, the purity of the strains was evaluated using enriched media (appropriate for the tested strains). For each experiment, a fresh 18–20 h culture was prepared on Tryptic Soy Agar (TSA, OXOID, Basingstoke, UK) for Gram-positive bacteria and MacConkey Agar (MC, OXOID, Basingstoke) for Gram-negative bacteria, and the samples were then transferred to fresh Mueller–Hinton Broth (MHB, OXOID, Basingstoke, UK), where the density was determined. Each culture was established at 10^8 CFU/mL and then diluted to a starting inoculum of 10^6 CFU/mL.
(§2) The microdilution method was used to measure the antimicrobial activity of amyloids. The test was performed according to the recommendations of EUCAST (ISO 20776–1:2019).
(§3) In 96-well microtiter plates, geometric dilutions of the tested amyloids were prepared from 128 to 0.25 µg/mL in 50 µL MHB. The stock solution (20 mg/mL) of the synthesized amyloids was prepared in MHB. The bacterial suspension prepared in MHB with a density of 10^6 CFU/mL was added to 50 µL of MHB containing the appropriate concentrations of amyloids, thus yielding a final bacterial concentration of 10^5 CFU/mL. Pure MHB was used as a negative control, while the control for bacterial growth was MHB medium in the presence of the strain used in the experiment. Antibiotic solutions were used as positive controls: colistin for Gram-negative bacteria and teicoplanin for Gram-positive bacteria.
(§4) Microtiter plates were incubated at 37 °C for 18 h for S. aureus, S. epidermidis, K. pneumoniae, E. coli, A. baumannii, and E. cloacae and 24 h for E. faecalis and E. faecium. Optimal density (OD600 nm) was measured in a plate reader (ASYS UVM340, BIOCHROM Ltd., Cambridge, UK). The absorbance results were converted to percentages (with respect to growth control) in the normalization process. The MIC (minimal inhibitory concentration) for each peptide was defined as the concentration at which the destruction of at least 90% of the initial inoculum was observed.
(§5) Each experiment was performed in three independent studies for each of the two isolates, and each replicate was performed in three separate wells. […] The MBC value was defined as the lowest concentration at which no growth of the tested strain was observed.
(§6) Linear regression analyses for viability of the HEK-293 cells subjected to ten amyloids, as well as the estimation of IC50 values, were determined in R Statistical Software using the model y = ax + 100% in the function lm from the stats package. The regression analyses for the viability of the bacterial cells and the estimation of MIC were conducted based on a linear mixed-effects model y = ax + 100% + (1|isolate/replicate) in lmer function from R package lme4 [73]. Isolates and replicates were assumed as random effects. The p-values of the determination coefficient and the slope were corrected using the Benjamini–Hochberg procedure for the obtained models.

[2] = test system: Enterococcus faecalis 37VRE; assay type: cell-based
Description: as §1, §2, §3, §4, §5, §6

Escherichia coli 1471 = assay type: cell-based
Description: as §1, §2, §3, §4, §5, §6

[3] = test system: Klebsiella pneumoniae N111; assay type: cell-based
Description: as §1, §2, §3, §4, §5, §6

[4] = Thioflavin T fluorescence, fibril/aggregate formation in MHB; assay type: physicochemical; settings: ThT 20 µM, peptide 20 mg/mL in MHB, 37 °C, 24 h, reading every 30 s, ex 450 nm / em 490 nm
Description: In the second stage of our research, we decided to determine the propensity of the ten short amyloids (Table 1) to form fibrils under the conditions routinely used to evaluate AMP properties, i.e., upon their incubation in Mueller–Hinton Broth (MHB; for details, see Materials and Methods). These experiments could also allow us to speculate whether the amyloid properties of peptides go along with their antimicrobial activities. To detect the presence of protein fibrils, we used a benzothiazole dye (thioflavin T). Thioflavin T binds to β sheet-rich structures in amyloid aggregates and triggers a characteristic red shift, i.e., an increase in the wavelength in both excitation and emission maximum of the dye. […] The fluorescence spectra of the remaining peptides were indistinguishable from those of the medium itself (Figure S1).
The amyogenic abilities of the tested amyloids were determined in a kinetic reaction using the fluorescent dye thioflavin T (ThT), according to the modified method of Salinas et al.. […] ThT fluorescence intensity readings were performed in 96-well opaque microplates using a SpectraMax GeminiXPS spectrofluorometer at an excitation of λex 450 nm, an emission of λem 490 nm, and a cut-off point of λcut off 475 nm. Measurements were monitored for 24 h every 30 s. at 37 °C. The results were analysed in the SoftMax program. […]

HEK-293 cells = assay type: cell-based, human; settings: HEK-293, MTT, 24 h exposure, 128 to 0.25 µg/mL; from linear regression y = ax + 100%
Description: HEK-293 human embryonic kidney cells (ATCC, CRL-1573) were cultured in DMEM medium supplemented with 10% fetal bovine serum and 1% penicillin/streptomycin solution. The cells were cultured at 37 °C, 5% CO2, until the concentration was about 10^6 per mL. A total of 2 × 10^5 cells/mL were seeded in 96-well tissue microplates (2 × 10^4 cells per well) and were allowed to adhere overnight under the conditions described above. Cytotoxicity tests were carried out on the cells prepared in this way.
Cells were incubated with varying concentrations from 128 to 0.25 µg/mL of the tested amyloid for 24 h exposure. The MTT assay has been previously described. After incubating the cells with the tested amyloids, the MTT reagent (Ck = 0.5 mg/mL) was added to a well of a microtiter plate. After 2 h incubation (37 °C, 5% CO2), the MTT medium was removed and replaced with DMSO, to which was then added Sorensen’s buffer (0.1 M glycine, 0.1 M NaCl; pH 10.5). In the MTT test, the cell viability is directly proportional to the absorbance (570 nm). The control cells for background absorbance contained the growth medium, with MTT only. For MTT analysis, at least three experiments were performed using cells from consecutive passages. […]

Row | Compound | MIC ([1]; 2VRE) [µg/mL] | MIC ([2]; 37VRE) [µg/mL] | MIC (Escherichia coli 1471) [µg/mL] | further results
1 | VCIVYK [Amyloid 2] | 177 | 364 | – | –
2 | VQIVCK [Amyloid 1] | 196 | 228 | – | –
3 | LKVKVL [Amyloid 7] | 326 | 418 | 345 | –
4 | VGIVYK [Amyloid 10] | 295 | 193 | – | –
5 | AIIGLM [Amyloid 8] | 280 | 496 | 372 | MIC ([3]; N111): 475 µg/mL
6 | C[C@@H](O)[C@H](NC(=O)[C@H](Cc1ccccc1)NC(=O)[C@H](CS)NC(=O)[C@H](Cc1c[nH]c2ccccc12)NC(=O)[C@H](CS)NC(=O)[C@@H](N)CCCCN)C(=O)O [Amyloid 5] (H-KCWCFT-OH; N-terminus and C-terminus assumed) | 230 (≈ 292 µM) | – | 405 (≈ 515 µM) | Formation of aggregates (fibrils) in the MHB medium [4]: formed aggregates in the MHB medium
7 | GGYLLG [Amyloid 9] | – | – | – | MIC ([1]; E. faecium 2VRE, calculated from linear mixed-effects regression model, beyond tested range (max 128 µg/mL), MIC = at least 90% destruction): 204 µg/mL; MIC ([2]; E. faecalis 37VRE, calculated from linear mixed-effects regression model, beyond tested range (max 128 µg/mL)): 389 µg/mL; MIC ([3]; K. pneumoniae N111, calculated from linear mixed-effects regression model, beyond tested range (max 128 µg/mL)): 406 µg/mL; IC50 (HEK-293 cells): 171 µg/mL
8 | LIVAGK [Amyloid 3] | 301 | – | – | –
9 | VKIVYK [Amyloid 6] | 179 | – | 319 | MIC ([3]; N111): 482 µg/mL
